# Laboratory results: patent US10189809B2, “SGC stimulators” (Ironwood Pharmaceuticals, Inc., priority 2010, dated 2019)
# Read-outs that look alike come from different tables or passages of the source.
# Key:
# [1] = test system: Thoracic aortic rings; test: Thoracic aortic rings assay (Example 19a; IBMX as 100% inhibition); conditions: compound at 10 μM, rat thoracic aortic rings contracted with 100 ng/mL phenylephrine; for inhibition at 10 µM: read-out: Percent Relaxation at 10 μM
# Method: Thoracic aortic rings were dissected from anesthetized (isoflurane) male Sprague-Dawley rats weighing 275-299 g. Tissues were immediately transferred to ice-cold Krebs-Henseleit solution, which had been aerated with 95% O2 and 5% CO2 for 30 minutes. Following removal of connective tissue, aortic sections were cut into 4 rings (˜2 mm each) and suspended on 2 L-shaped hooks, with one hook fixed at the bottom of the tissue bath (Schuler Organ Bath, Harvard Apparatus) and the other connected to a force transducer (F30 Force Transducer, Harvard Apparatus). Baths contained Krebs Henseleit solution (10 mL) heated to 37° C. and aerated with 95% O2 and 5% CO2. Rings were brought to an initial tension of 0.3-0.5 g and gradually raised to a resting tension of 1.0 g over 60 minutes. Rings were rinsed with Krebs Henseleit solution (heated to 37° C. and aerated with 95% O2 and 5% CO2) at 15 minute intervals until a stable baseline was obtained. Rings were considered to be stable after a resting tension of 1.0 g was maintained (for approximately 10 minutes) without need for adjustment. Rings were then contracted with 100 ng/mL phenylephrine by adding 100 uL of a 10 μg/mL phenylephrine stock solution. Tissues achieving a stable contraction were then treated in a cumulative, dose dependent manner with test compounds prepared in dimethylsulfoxide (DMSO). In some cases, tissues were rinsed three times over a 5 minute period with Krebs-Heinseleit's solution (heated to 37° C. and aerated with 95% O2 and 5% CO2), allowed to stabilize at baseline, and then used for characterization of other test articles or DMSO effects. All data were collected using the HSE-ACAD software provided by Harvard Apparatus. […] EC50 values were calculated from concentration-response curves generated with GraphPad Prism Software.
# [2] = target: T1, soluble guanylate cyclase (sGC) (Homo sapiens (Human), UniProt Q02108+Q02153); test: sGC-HEK-cGMP assay run in the absence of SNP (HEK WC assay); format: cell-based; conditions: for HEK WC Assay (fold increase at 10 μM): compound at 10 μM; for HEK WC Assay (fold increase at 10 μM) / HEK WC Assay (fold increase at 30 μM): no SNP, increase in the sGC receptor activity; for HEK WC Assay (fold increase at 30 μM) / HEK WC Assay (fold increase at 30 μM in the absence of SNP): compound at 30 μM
# T1 sequence (Q02153 whole entry): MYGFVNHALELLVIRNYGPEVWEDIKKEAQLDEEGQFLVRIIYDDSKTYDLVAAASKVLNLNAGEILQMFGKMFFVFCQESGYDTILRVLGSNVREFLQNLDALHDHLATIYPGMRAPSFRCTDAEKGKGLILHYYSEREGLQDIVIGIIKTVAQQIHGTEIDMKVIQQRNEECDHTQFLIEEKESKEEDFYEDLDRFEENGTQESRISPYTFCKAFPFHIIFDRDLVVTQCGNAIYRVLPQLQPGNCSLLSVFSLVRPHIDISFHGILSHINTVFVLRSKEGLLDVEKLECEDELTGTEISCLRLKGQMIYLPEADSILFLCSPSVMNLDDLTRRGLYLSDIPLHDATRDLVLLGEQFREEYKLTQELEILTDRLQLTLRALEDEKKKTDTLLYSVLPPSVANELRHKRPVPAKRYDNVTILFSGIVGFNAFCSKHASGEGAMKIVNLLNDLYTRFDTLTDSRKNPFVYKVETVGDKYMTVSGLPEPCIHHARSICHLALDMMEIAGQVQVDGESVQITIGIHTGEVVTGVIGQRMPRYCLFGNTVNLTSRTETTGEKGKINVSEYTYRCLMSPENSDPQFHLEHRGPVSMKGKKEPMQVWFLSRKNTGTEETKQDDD
# T1 sequence (Q02108 whole entry): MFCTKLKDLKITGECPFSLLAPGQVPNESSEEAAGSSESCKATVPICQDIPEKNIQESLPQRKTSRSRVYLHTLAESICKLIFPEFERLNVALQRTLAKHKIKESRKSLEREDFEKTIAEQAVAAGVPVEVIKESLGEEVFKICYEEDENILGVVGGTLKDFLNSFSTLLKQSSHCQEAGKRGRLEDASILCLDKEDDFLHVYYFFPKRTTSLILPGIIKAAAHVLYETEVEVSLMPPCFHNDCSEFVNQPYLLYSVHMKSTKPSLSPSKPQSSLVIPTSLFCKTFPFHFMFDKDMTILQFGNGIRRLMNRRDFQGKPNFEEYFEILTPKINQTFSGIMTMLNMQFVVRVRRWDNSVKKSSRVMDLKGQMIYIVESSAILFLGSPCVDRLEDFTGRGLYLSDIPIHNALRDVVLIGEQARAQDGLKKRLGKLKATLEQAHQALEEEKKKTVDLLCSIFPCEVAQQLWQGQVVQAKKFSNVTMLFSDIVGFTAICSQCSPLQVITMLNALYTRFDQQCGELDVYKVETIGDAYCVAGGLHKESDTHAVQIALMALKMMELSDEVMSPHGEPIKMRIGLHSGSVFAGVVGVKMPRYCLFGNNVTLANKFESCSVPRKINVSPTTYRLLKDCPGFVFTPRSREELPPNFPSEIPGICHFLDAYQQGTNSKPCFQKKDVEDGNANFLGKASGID
# Outline: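 HEK293 cells with endogenous sGC, preincubated 15 min at 37° C with 0.5 mM IBMX, then exposed to test compound 10 min at 37° C without SNP. Cells lysed in 0.1 M HCl; cGMP quantified by LC/MS against a standard curve. EC50 from concentration-response curves.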
# [3] = target: T2, Human soluble guanylate cyclase enzyme (hsGC) (Homo sapiens (Human), UniProt Q02108+Q02153); test: Purified human sGC enzyme activity assay; format: biochemical; conditions: for sGC Enzyme (specific activity at 10 μM) / sGC Enzyme (fold increase at 10 μM without SNP): 10 μM compound; for sGC Enzyme (specific activity at 30 μM) / sGC Enzyme (fold increase at 30 μM without SNP) / sGC Enzyme (fold increase at 30 μM): 30 μM compound; for sGC Enzyme (fold increase at 30 μM): without the addition of SNP
# T2 sequence (Q02153 whole entry): as the sequence (Q02153 whole entry) above
# T2 sequence (Q02108 whole entry): as the sequence (Q02108 whole entry) above
# Outline: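 Purified human sGC (5 ng) incubated 30 min at 37° C with compound at 10 or 30 μM final in pH 8.0 Tris with 300 μM GTP, 2 mM MgCl2, 2 mM DTT and 1 mM IBMX, then stopped with cold methanol. cGMP quantified against a standard curve. Specific activity (nmol cGMP/mg sGC/min) expressed as fold-change over DMSO control.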
# [4] = target: T1, soluble guanylate cyclase (sGC); test: sGC-HEK-cGMP assay run with SNP incubation (HEK WC assay); format: cell-based; conditions: for HEK WC Assay (fold increase at 30 μM in the presence of 10 μM SNP): compound at 30 μM; for EC50: in the presence of 10 uM SNP
# Outline: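 HEK293 cells with endogenous sGC were pretreated with 0.5 mM IBMX for 15 min at 37 °C, then exposed to test compound plus sodium nitroprusside for 10 min at 37 °C.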
# [5] = target: T2, Human soluble guanylate cyclase enzyme (hsGC); test: Purified human sGC enzyme synergy assay in the presence of 1 μM sodium nitroprusside (SNP); format: biochemical; conditions: for sGC Enzyme (fold increase at 30 μM with SNP): 30 μM compound
# Outline: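 Purified human sGC (5 ng) incubated 30 min at 37 °C with compounds at 10 or 30 μM, 1 μM sodium nitroprusside, 300 μM GTP and 1 mM IBMX in Tris pH 8.0 with MgCl2/DTT. cGMP quantified against a standard curve, and specific activity expressed as fold-change over DMSO control.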
# [6] = test system: Thoracic aortic rings; test: Alternative thoracic aortic rings assay (Example 19b; resting tension as 100% inhibition); design: species or system rat; conditions: for inhibition at 1 µM: read-out: Percent Relaxation at 1 μM; for inhibition at 3 µM: read-out: Percent Relaxation at 3 μM; for EC50: read-out: Aortic Ring EC50
# Outline: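 Aortic rings (~2 mm) from male Sprague-Dawley rats (275-299 g) held at 1.0 g resting tension in Krebs-Henseleit at 37 °C under 95% O2/5% CO2, then precontracted with 100 ng/mL phenylephrine. Compounds in DMSO added cumulatively; relaxation recorded by force transducer and EC50 taken from concentration-response curves.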
# [7] = read-out: HEK WC Assay (% Emax at 10 uM/with 10 uM SNP)
# [8] = read-out: HEK WC Assay (% Emax at 30 uM/with 10 uM SNP)
# [9] = read-out: HEK WC Assay (% Emax at 10 μM with 10 uM SNP)
# [10] = read-out: HEK WC Assay (% Emax at 10 μM/with 10 uM SNP)
# [11] = read-out: HEK WC Assay (% Emax at 30 μM with 10 uM SNP)
# [12] = read-out: HEK WC Assay (% Emax at 30 μM/with 10 uM SNP)
# [13] = read-out: HEK WC Assay in the presence of 10 uM SNP EC50
Compound,sGC Enzyme (specific activity at 10 μM) [3],sGC Enzyme (fold increase at 10 μM without SNP) [3],sGC Enzyme (specific activity at 30 μM) [3],sGC Enzyme (fold increase at 30 μM without SNP) [3],"Emax at 10 µM [4, 7] [%]","Emax at 30 µM [4, 8] [%]",HEK WC Assay (fold increase at 30 μM in the absence of SNP) [2],sGC Enzyme (fold increase at 30 μM) [3],HEK WC Assay (fold increase at 30 μM in the presence of 10 μM SNP) [4],"Emax [4, 9] [%]","Emax at 10 µM [4, 10] [%]","Emax [4, 11] [%]","Emax at 30 µM [4, 12] [%]","EC50 [4, 13] [µM]",sGC Enzyme (fold increase at 30 μM with SNP) ([5]; with the addition of SNP),inhibition at 10 µM [1] [%],also measured
Fc1ccccc1Cn1nc(-c2ncccn2)cc1-c1ccccc1 [Compound I-2],B (B = 50 to <100),B (B = 2 to <5 fold increase),A (A = 0 to <50),B (B = 2 to <5 fold increase),10 to 20,20 to 40,–,–,–,–,–,–,–,–,–,101,HEK WC Assay (fold increase at 10 μM) [2]: A (A = no increase to <1 fold increase); HEK WC Assay (fold increase at 30 μM) [2]: B (B = 1 to <2 fold increase)
Fc1ccccc1Cn1nc(-c2ccccn2)cc1-c1ccsc1 [Compound I-26],D (D = 200 to <500),B (B = 2 to <5 fold increase),D (D = 200 to <500),C (C = 5 to <10 fold increase),20 to 40,40 to 60,–,–,–,–,–,–,–,–,–,85.3,"sGC Enzyme (fold increase at 10 μM with SNP) ([5]; 10 μM compound, with 1 μM SNP): C (C = 5 to <10 fold increase); sGC Enzyme (fold increase at 30 μM with SNP) ([5]; with 1 μM SNP): D (D = equal or >10 fold increase)"
Nc1ccnc(-c2cc(-c3ccsc3)n(Cc3ccccc3F)n2)n1 [Compound I-49],D (D = 200 to <500),C (C = 5 to <10 fold increase),E (E = 500 to <1000),D (D = equal or >10 fold increase),20 to 40,40 to 60,–,–,–,–,–,–,–,–,–,106,–
"Nc1nc(-c2nn(Cc3ccccc3F)c3ncccc23)ncc1C1CC1 [Reference Compound, BAY 41-2272, reference compound]",–,–,–,–,–,–,–,–,–,–,–,–,–,–,–,–,Percent Relaxation at 10 μM [1]: 100%
Fc1ccccc1Cn1nc(-c2ccccn2)cc1-c1nccs1 [Compound I-27],C (C = 100 to <200),B (B = 2 to <5 fold increase),D (D = 200 to <500),B (B = 2 to <5 fold increase),20 to 40,40 to 60,–,–,–,–,–,–,–,–,–,77.2,–
Fc1ccccc1Cn1nc(-c2ccccn2)cc1-c1ccccn1 [Compound I-1],B (B = 50 to <100),B (B = 2 to <5 fold increase),C (C = 100 to <200),C (C = 5 to <10 fold increase),0 to 10,10 to 20,–,–,–,–,–,–,–,–,–,53.7,HEK WC Assay (fold increase at 10 μM) [2]: A (A = no increase to <1 fold increase); HEK WC Assay (fold increase at 30 μM) [2]: C (C = 2 to <5 fold increase)

# Now from value to compound, other results behind:
sGC Enzyme (specific activity at 10 μM) [3],sGC Enzyme (fold increase at 10 μM without SNP) [3],sGC Enzyme (specific activity at 30 μM) [3],sGC Enzyme (fold increase at 30 μM without SNP) [3],"Emax at 10 µM [4, 7] [%]","Emax at 30 µM [4, 8] [%]",HEK WC Assay (fold increase at 30 μM in the absence of SNP) [2],sGC Enzyme (fold increase at 30 μM) [3],HEK WC Assay (fold increase at 30 μM in the presence of 10 μM SNP) [4],"Emax [4, 9] [%]","Emax at 10 µM [4, 10] [%]","Emax [4, 11] [%]","Emax at 30 µM [4, 12] [%]","EC50 [4, 13] [µM]",sGC Enzyme (fold increase at 30 μM with SNP) ([5]; with the addition of SNP),Compound,inhibition at 10 µM [1] [%],also measured
–,–,–,–,–,–,E (E = 10 to <20 fold increase),D (D = 10 to <30 fold increase),F (F = 20 to <30 fold increase),100 to 120,> 120,100 to 120,100 to 120,< 20,D (D = 10 to <30 fold increase),Nc1nc(-c2cc(-c3ccon3)n(Cc3ccccc3F)n2)ncc1NC(=O)c1ccccc1 [Compound I-126],–,"Percent Relaxation at 1 μM ([6]; Table 10B): F (F = 80 to <100%); Percent Relaxation at 3 μM ([6]; Table 10B): G (G = 100 to <120%); inhibition at 1 µM ([6]; Rattus norvegicus, Table 10A): 80 to 100%; inhibition at 3 µM ([6]; Rattus norvegicus, Table 10A): 100 to 120%; EC50 ([6]; Rattus norvegicus, Table 10A): < 2 µM; EC50 ([6]; Table 10B): < 2 µM"
–,–,–,–,–,–,C (C = 2 to <5 fold increase),B (B = 2 to <5 fold increase),E (E = 10 to <20 fold increase),100 to 120,> 120,100 to 120,> 120,< 20,D (D = 10 to <30 fold increase),"Nc1nc(-c2cc(-c3ccon3)n(Cc3ccccc3F)n2)ncc1C1(O)CC1 [Compound I-119, I-(4-amino-2-(1-(2-fluorobenzyl)-5-(isoxazol-3-yl)-1H-pyrazol-3-yl)pyrimidin-5-yl)cyclopropanol]",–,"Percent Relaxation at 1 μM ([6]; Table 10B): C (C = 20 to <40%); Percent Relaxation at 3 μM ([6]; Table 10B): E (E = 60 or <80%); Percent Relaxation at 10 μM ([6]; 10 μM, Table 10B): G (G = 100 to <120%); inhibition at 1 µM ([6]; Rattus norvegicus, Table 10A): 20 to 40%; inhibition at 3 µM ([6]; Rattus norvegicus, Table 10A): 60 to 80%; inhibition at 10 µM ([6]; Rattus norvegicus, 10 μM, Table 10A, read-out: Percent Relaxation at 10 μM): 100 to 120%; EC50 ([6]; Rattus norvegicus, Table 10A): < 2 µM; EC50 ([6]; Table 10B): < 2 µM"
–,–,–,–,–,–,E (E = 10 to <20 fold increase),D (D = 10 to <30 fold increase),F (F = 20 to <30 fold increase),100 to 120,> 120,60 to 80,60 to 80,–,D (D = 10 to <30 fold increase),CC(C)(C)CC(=O)Nc1cnc(-c2cc(-c3ccon3)n(Cc3ccccc3F)n2)nc1N [Compound I-124],–,EC50 [4]: < 20 µM
–,–,–,–,–,–,D (D = 5 to <10 fold increase),C (C = 5 to <10 fold increase),E (E = 10 to <20 fold increase),60 to 80,60 to 80,40 to 60,40 to 60,60 to 100,D (D = 10 to <30 fold increase),"C=CCOC1(c2cnc(-c3cc(-c4ccon4)n(Cc4ccccc4F)n3)nc2N)CC1 [Compound I-118, 5-(1-(allyloxy)cyclopropyl)-2-(1-(2-fluorobenzyl)-5-(isoxazol-3-yl)-1H-pyrazol-3-yl)pyrimidin-4-amine]",–,–
–,–,–,–,–,–,D (D = 5 to <10 fold increase),C (C = 5 to <10 fold increase),F (F = 20 to <30 fold increase),80 to 100,80 to 100,80 to 100,80 to 100,< 20,D (D = 10 to <30 fold increase),Nc1nc(-c2cc(-c3ccon3)n(Cc3ccccc3F)n2)ncc1NC(=O)OCc1ccccc1 [Compound I-125],–,–
